Columns and labels:
kochia [1] = assay: Test C postemergence; format: in vivo, Bassia scoparia; settings: 10 days, 0 to 100 scale (0 no effect, 100 complete control)
Method in brief: (§1)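 Seeds in loam–sand blend received preemergence directed soil spray of test chemicals in non-phytotoxic solvent with surfactant; postemergence treatment was applied at one- to two-leaf stage (2–10 cm). After 10 days in greenhouse, injury rated visually versus untreated controls, 0 (no effect) to 100 (complete control).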

ryegrass, Italian [2] = assay: Test C preemergence; format: in vivo, Lolium multiflorum
Method in brief: as §1

ragweed [3] = assay: Test C postemergence; format: in vivo, Ambrosia artemisiifolia; settings: 10 days, 0 to 100 scale (0 no effect, 100 complete control)
Method in brief: as §1

barnyardgrass [4] = assay: Test C preemergence; format: in vivo, Echinochloa crusgalli
Method in brief: as §1

oat, wild [5] = assay: Test C preemergence; format: in vivo, Avena fatua
Method in brief: as §1

ducksalad = assay: Test D flooded paddy test; format: in vivo, Heteranthera limosa; settings: 250 g ai/ha, applied to paddy water, visual rating after 13 to 14 days, scale 0 to 100 (0 no effect, 100 complete control)
Method in brief: (§2)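 Compounds go straight into paddy water over 2-leaf plants in pots flooded to 3 cm. Greenhouse holding lasts 13 to 14 days. Injury is scored by eye against controls from 0 (none) to 100 (complete control).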

pigweed, palmer [6] = assay: Test C postemergence; format: in vivo, Amaranthus palmeri; settings: 10 days, 0 to 100 scale (0 no effect, 100 complete control)
Method in brief: as §1

kochia [7] = assay: Test C preemergence; format: in vivo, Bassia scoparia
Method in brief: as §1

blackgrass [8] = assay: Test C postemergence; format: in vivo, Alopecurus myosuroides; settings: 10 days, 0 to 100 scale (0 no effect, 100 complete control)
Method in brief: as §1

ragweed [9] = assay: Test C preemergence; format: in vivo, Ambrosia artemisiifolia
Method in brief: as §1

pigweed, palmer [10] = assay: Test C preemergence; format: in vivo, Amaranthus palmeri
Method in brief: as §1

horseweed = assay: Test C postemergence; format: in vivo, Erigeron canadensis; settings: 10 days, 0 to 100 scale (0 no effect, 100 complete control)
Method in brief: as §1

green foxtail [11] = assay: Test C preemergence; format: in vivo, Setaria viridis
Method in brief: as §1

galium = assay: Test C postemergence; format: in vivo, Galium aparine; settings: 10 days, 0 to 100 scale (0 no effect, 100 complete control)
Method in brief: as §1

ryegrass, Italian [12] = assay: Test C postemergence; format: in vivo, Lolium multiflorum; settings: 10 days, 0 to 100 scale (0 no effect, 100 complete control)
Method in brief: as §1

rice = assay: Test D flooded paddy test; format: in vivo, Oryza sativa; settings: 250 g ai/ha, applied to paddy water, visual rating after 13 to 14 days, scale 0 to 100 (0 no effect, 100 complete control)
Method in brief: as §2

wheat [13] = assay: Test C preemergence; format: in vivo, Triticum aestivum
Method in brief: as §1

oat, wild [14] = assay: Test C postemergence; format: in vivo, Avena fatua; settings: 10 days, 0 to 100 scale (0 no effect, 100 complete control)
Method in brief: as §1

barnyardgrass [15] = assay: Test C postemergence; format: in vivo, Echinochloa crusgalli; settings: 10 days, 0 to 100 scale (0 no effect, 100 complete control)
Method in brief: as §1

wheat [16] = assay: Test C postemergence; format: in vivo, Triticum aestivum; settings: 10 days, 0 to 100 scale (0 no effect, 100 complete control)
Method in brief: as §1

soybean [17] = assay: Test C preemergence; format: in vivo, Glycine max
Method in brief: as §1

blackgrass [18] = assay: Test C preemergence; format: in vivo, Alopecurus myosuroides
Method in brief: as §1

corn [19] = assay: Test C postemergence; format: in vivo, Zea mays; settings: 10 days, 0 to 100 scale (0 no effect, 100 complete control)
Method in brief: as §1

green foxtail [20] = assay: Test C postemergence; format: in vivo, Setaria viridis; settings: 10 days, 0 to 100 scale (0 no effect, 100 complete control)
Method in brief: as §1

corn [21] = assay: Test C preemergence; format: in vivo, Zea mays
Method in brief: as §1

barnyardgrass [22] = assay: Test D flooded paddy test; format: in vivo, Echinochloa crus-galli; settings: 250 g ai/ha, applied to paddy water, visual rating after 13 to 14 days, scale 0 to 100 (0 no effect, 100 complete control)
Method in brief: as §2

sedge, umbrella = assay: Test D flooded paddy test; format: in vivo, Cyperus difformis; settings: 250 g ai/ha, applied to paddy water, visual rating after 13 to 14 days, scale 0 to 100 (0 no effect, 100 complete control)
Method in brief: as §2

soybean [23] = assay: Test C postemergence; format: in vivo, Glycine max; settings: 10 days, 0 to 100 scale (0 no effect, 100 complete control)
Method in brief: as §1

[24] = 500 g ai/ha, preemergence, 0 to 100 scale (0 no effect, 100 complete control)
[25] = Preemergence, 125 g ai/ha, 0 to 100 scale, 0 no effect, 100 complete control

CCOC[C@H]1CN(C(=O)c2cc(-n3cnc(C(C)C)n3)ccc2OC)c2cccc(Cl)c2O1 [Compound 341]
Plant response rating, Kochia (kochia [1]; 500 g ai/ha, postemergence): 90 | Plant response rating, Kochia (kochia [1]; Postemergence, 125 g ai/ha): 80 | Ryegrass, Italian plant response rating (ryegrass, Italian [2]; [24]): 100 | Plant response rating, Ryegrass, Italian (ryegrass, Italian [2]; [25]): 80 | Plant response rating, Ragweed (ragweed [3]; 500 g ai/ha, postemergence): 90 | Plant response rating, Ragweed (ragweed [3]; Postemergence, 125 g ai/ha): 60 | Barnyardgrass plant response rating (barnyardgrass [4]; [24]): 100 | Plant response rating, Barnyardgrass (barnyardgrass [4]; [25]): 90 | Oat, Wild plant response rating (oat, wild [5]; [24]): 80 | Plant response rating, Oat, Wild (oat, wild [5]; [25]): 50 | Plant response rating, Ducksalad (Flood) (ducksalad): 70 | Plant response rating, Pigweed, Palmer (pigweed, palmer [6]; 500 g ai/ha, postemergence): 100 | Plant response rating, Pigweed, Palmer (pigweed, palmer [6]; Postemergence, 125 g ai/ha): 80 | Kochia plant response rating (kochia [7]; [24]): 100 | Plant response rating, Kochia (kochia [7]; [25]): 100 | Plant response rating, Blackgrass (blackgrass [8]; 500 g ai/ha, postemergence): 50 | Plant response rating, Blackgrass (blackgrass [8]; Postemergence, 125 g ai/ha): 10 | Ragweed plant response rating (ragweed [9]; [24]): 100 | Plant response rating, Ragweed (ragweed [9]; [25]): 80 | Pigweed, Palmer plant response rating (pigweed, palmer [10]; [24]): 100 | Plant response rating, Pigweed, Palmer (pigweed, palmer [10]; [25]): 100 | Plant response rating, Horseweed (horseweed; 500 g ai/ha, postemergence): 60 | Plant response rating, Horseweed (horseweed; Postemergence, 125 g ai/ha): 60 | Foxtail, Green plant response rating (green foxtail [11]; [24]): 100 | Plant response rating, Foxtail, Green (green foxtail [11]; [25]): 100 | Plant response rating, Galium (galium; 500 g ai/ha, postemergence): 100 | Plant response rating, Galium (galium; Postemergence, 125 g ai/ha): 90 | Plant response rating, Ryegrass, Italian (ryegrass, Italian [12]; 500 g ai/ha, postemergence): 60 | Plant response rating, Ryegrass, Italian (ryegrass, Italian [12]; Postemergence, 125 g ai/ha): 30 | Plant response rating, Rice (Flood) (rice): 0 | Wheat plant response rating (wheat [13]; [24]): 30 | Plant response rating, Wheat (wheat [13]; [25]): 30 | Plant response rating, Oat, Wild (oat, wild [14]; 500 g ai/ha, postemergence): 20 | Plant response rating, Oat, Wild (oat, wild [14]; Postemergence, 125 g ai/ha): 10 | Plant response rating, Barnyardgrass (barnyardgrass [15]; 500 g ai/ha, postemergence): 70 | Plant response rating, Barnyardgrass (barnyardgrass [15]; Postemergence, 125 g ai/ha): 20 | Plant response rating, Wheat (wheat [16]; 500 g ai/ha, postemergence): 20 | Plant response rating, Wheat (wheat [16]; Postemergence, 125 g ai/ha): 10 | Soybean plant response rating (soybean [17]; [24]): 60 | Plant response rating, Soybean (soybean [17]; [25]): 100 | Blackgrass plant response rating (blackgrass [18]; [24]): 80 | Plant response rating, Blackgrass (blackgrass [18]; [25]): 20 | Plant response rating, Corn (corn [19]; 500 g ai/ha, postemergence): 80 | Plant response rating, Corn (corn [19]; Postemergence, 125 g ai/ha): 0 | Plant response rating, Foxtail, Green (green foxtail [20]; 500 g ai/ha, postemergence): 70 | Plant response rating, Foxtail, Green (green foxtail [20]; Postemergence, 125 g ai/ha): 30 | Corn plant response rating (corn [21]; [24]): 30 | Plant response rating, Corn (corn [21]; [25]): 20 | Plant response rating, Barnyardgrass (Flood) (barnyardgrass [22]): 25 | Plant response rating, Sedge, Umbrella (Flood) (sedge, umbrella): 90 | Plant response rating, Soybean (soybean [23]; 500 g ai/ha, postemergence): 100 | Plant response rating, Soybean (soybean [23]; Postemergence, 125 g ai/ha): 100

From US20260262643A1, “HERBICIDAL BENZOXAZINES” (FMC CORPORATION, priority 2022, published 2026)
